Here are results for ten molecules from patent US20080234254A1, “Inhibitors of Histone Deacetylase” (UNIVERSITY OF LEEDS, priority 2004, published 2008).

Like-named read-outs stand apart in the source and are kept apart here.

The test system of one series is HCC-2998. Nature of the series: Screening against cancer cell lines: HCC-2998 (Colon). The class given is cell-based. An excerpt:
(§1) Screening of Benzamide Derivatives Against Cancer Cell Lines Tables 1 and 2 tabulate by way of example the results obtained for compounds (4) and (6).
(§2) 6 colon cancer cell lines were screened against both compound (4) and MS275.

The next series relates to NCI-H522. Put plainly: Screening against cancer cell lines: NCI-H522 (Non-Small Cell Lung). The class given is cell-based.
Text: as §1
(§3) 8 non-small cell lung cancer cell lines were screened against both compound (4) and MS275.

A further series concerns NCI-H23. Put plainly: Screening against cancer cell lines: NCI-H23 (Non-Small Cell Lung). The class given is cell-based.
Text: as §1, §3

In another series the test system is MDA-MB-435. Put plainly: Screening against cancer cell lines: MDA-MB-435 (Breast). The class given is cell-based.
Text: as §1
(§4) 7 breast cancer cell lines were screened against both compound (4) and MS275.

The subject of a further series is NCI/ADR-RES. Nature of the series: Screening against cancer cell lines: NCI/ADR-RES (Breast). The class given is cell-based.
Text: as §1, §4

In a further series the test system is LOX IMVI. Put plainly: Screening against cancer cell lines: LOX IMVI (Melanoma). The class given is cell-based.
Text: as §1
(§5) 7 melanoma cancer cell lines were screened against both compound (4) and MS275.

For the next series, the system named is IGROV1. Nature of the series: Screening against cancer cell lines: IGROV1 (Ovarian). The class given is cell-based. As to conditions: for GI50: IGROV-1.
Text: as §1
(§6) 6 ovarian cancer cell lines were screened against both compound (4) and MS275.

The test system of another series is cancer cell lines. Nature of the series: Screening of benzamide derivatives against cancer cell lines (summary). The class given is cell-based. To be noted: summary of Tables 1 and 2.
Text: as §1

The subject of the next series is SR. Put plainly: Screening against cancer cell lines: SR (Leukaemia). The class given is cell-based.
Text: as §1

For a further series, the system named is ACHN. Nature of the series: Screening against cancer cell lines: ACHN (Renal). The class given is cell-based. As to conditions: Homo sapiens, renal cancer, comparison versus MS275, read-out: potency (quantity not named; values match GI50 of Table 1).
Text: as §1
(§7) 7 renal cancer cell lines were screened against both compound (4) and MS275.

For a further series, the system named is SK-OV-3. Put plainly: Comparison test versus MS275: SK-OV-3 (ovarian cancer). The class given is cell-based. As to conditions: Homo sapiens, read-out: potency (quantity not named; values match GI50 of Table 1).
Text: as §6

A further series relates to OVCAR-4. Nature of the series: Comparison test versus MS275: OVCAR-4 (ovarian cancer). As to conditions: Homo sapiens, read-out: potency (quantity not named; values match GI50 of Table 1). The class given is cell-based.
Text: as §6

Another series relates to RXF 393. Nature of the series: Screening against cancer cell lines: RXF 393 (Renal). The class given is cell-based. To be noted: Homo sapiens; RXF 393, renal cancer; comparison versus MS275; read-out: potency (quantity not named; values match GI50 of Table 1).
Text: as §1, §7

In the next series the test system is SK-MEL-28. Nature of the series: Screening against cancer cell lines: SK-MEL-28 (Melanoma). The class given is cell-based. To be noted: Homo sapiens; SK-MEL-28, melanoma; comparison versus MS275; read-out: potency (quantity not named; values match GI50 of Table 1).
Text: as §1, §5

Another series relates to 786-0. Nature of the series: Comparison test versus MS275: 786-0 (renal cancer). The class given is cell-based. To be noted: Homo sapiens, read-out: potency (quantity not named; values match GI50 of Table 1).
Text: as §7

For a further series, the system named is KM-12. Put plainly: Comparison test versus MS275: KM-12 (colon cancer). To be noted: Homo sapiens, KM12, read-out: potency (quantity not named; values match GI50 of Table 1). The class given is cell-based.
Text: as §2

The next series deals with HCT-15. Put plainly: Screening against cancer cell lines: HCT-15 (Colon). The class given is cell-based. To be noted: Homo sapiens; HCT-15, colon cancer; comparison versus MS275; read-out: potency (quantity not named; values match GI50 of Table 1).
Text: as §1, §2

The test system of the next series is MDA-MB-231/ATCC. Put plainly: Screening against cancer cell lines: MDA-MB-231/ATCC (Breast). The class given is cell-based. As to conditions: Homo sapiens, breast cancer, comparison versus MS275, read-out: potency (quantity not named; values match GI50 of Table 1).
Text: as §1, §4

The next series concerns SN12C. Put plainly: Screening against cancer cell lines: SN12C (Renal). The class given is cell-based. To be noted: Homo sapiens, renal cancer, comparison versus MS275, read-out: potency (quantity not named; values match GI50 of Table 1).
Text: as §1, §7

In another series the test system is UACC-257. Put plainly: Screening against cancer cell lines: UACC-257 (Melanoma). The class given is cell-based. As to conditions: Homo sapiens; UACC-257, melanoma; comparison versus MS275; read-out: potency (quantity not named; values match GI50 of Table 1).
Text: as §1, §5

A further series concerns tumours. As to conditions: mice; cited from earlier work.
A further series deals with rat fibroblasts. To be noted: cited from earlier work.

As a reminder, the melting point is the temperature of the solid-liquid transition. `C=C(CN1CCOCC1)c1ccc(C(=O)Nc2ccccc2N)cc1` [(1), N-(2-Amino-phenyl)-4-(1-morpholin-4-ylmethyl-vinyl)-benzamide] registered a melting point of 163 to 164 °C.

With `C=C(CN(C)Cc1ccccc1)c1ccc(C(=O)Nc2ccccc2N)cc1` [(2), N-(2-amino-phenyl)-4-(1-{[benzyl(methyl)amino]methyl}vinyl)benzamide], the melting point was 110 to 111 °C.

Broadly, the TGI is the concentration at which net growth stops. The low end stands for more potent growth arrest, the high end for less potent growth arrest. Take `C=C(CN1CCc2c([nH]c3ccccc23)C1)c1ccc(C(=O)Nc2ccccc2N)cc1` [(6), N-(2-aminophenyl)-4-[1-(1,3,4,9-tetrahydro-2H-β-carbolin-2-ylmethyl)vinyl]benzamide]: the TGI in the series with HCC-2998 (HCC-2998, Colon, Table 2) is 1900 nM; in the series on NCI-H522 (NCI-H522, Non-Small Cell Lung, Table 2), 3000 nM; in the series on NCI-H23 (NCI-H23, Non-Small Cell Lung, Table 2), 3200 nM; in the series on MDA-MB-435 (MDA-MB-435, Breast, Table 2), 2200 nM; with NCI/ADR-RES (Breast, Table 2), 3900 nM; in the series with LOX IMVI (Melanoma, Table 2) it was 2400 nM. The TGI in the series with IGROV1 (IGROV1, Ovarian, Table 2) is 8500 nM; in the series on SR (Leukaemia, Table 2), “— (‘—’ indicates a concentration exceeding 50 μM.)”. Moreover, the GI50 with HCC-2998 (Homo sapiens, HCC 2998) came out at 731 nM; in the series on NCI-H522 (Homo sapiens, NCI-H522), 150 nM; with NCI-H23 (Homo sapiens, NCI-H23) it was 1040 nM; in the series with MDA-MB-435 (Homo sapiens, MDA-MB-435), 948 nM; in the series on NCI/ADR-RES (Homo sapiens), 973 nM; in the series on LOX IMVI (Homo sapiens), 763 nM. Also, the GI50 with IGROV1 (Homo sapiens) is 32 nM; in the series with SR (Homo sapiens) it was 622 nM. The CC50 in the series with HCC-2998 (Homo sapiens, HCC 2998, read-out: LC50) was 5000 nM; with NCI-H522 (Homo sapiens, NCI-H522, read-out: LC50), greater than 50000 nM; with NCI-H23 (Homo sapiens, NCI-H23, read-out: LC50), 13400 nM; in the series with MDA-MB-435 (Homo sapiens, MDA-MB-435, read-out: LC50), 5600 nM; with NCI/ADR-RES (Homo sapiens, read-out: LC50), 18300 nM; in the series with LOX IMVI (Homo sapiens, read-out: LC50), greater than 50000 nM. In addition, the CC50 in the series on IGROV1 (Homo sapiens, IGROV-1, read-out: LC50) is greater than 50000 nM; with SR (Homo sapiens, read-out: LC50), greater than 50000 nM. Moreover, the “activity against cancer cell lines (in words)” value with cancer cell lines is on record as “nanomolar activity”.

For `C=C(CNCc1ccccc1)c1ccc(C(=O)Nc2ccccc2N)cc1` [(7), N-(2-aminophenyl)-4-{1-[(benzylamino)methyl]vinyl}benzamide], the melting point is 89 to 91 °C.

In turn, `C=C(CN1CCN(c2ccccc2OC)CC1)c1ccc(C(=O)Nc2ccccc2N)cc1` [(9), N-(2-aminophenyl)-4-{1-[4-(2-methoxy-phenyl)-piperazin-1-ylmethyl]vinyl}-benzamide] returned a melting point of 115 to 116 °C.

`C=C(CN1CCOCC1)c1ccc(CC(=O)Nc2ccccc2N)cc1` [(11), N-(2-Amino-phenyl)-2-[4-(1-morpholin-4-ylmethyl-vinyl)-phenyl]-acetamide] gave a melting point of 129 °C.

`C=C(CN1CCOCC1)c1ccc(CCCC(=O)Nc2ccccc2N)cc1` [(13), N-(2-Amino-phenyl)-4-[4-(1-morpholin-4-ylmethyl-vinyl)-phenyl]-butanamide]: the melting point lay within 79 to 81 °C.

Consider `CC(C)=C(CN1CCc2ccccc2C1)c1ccc(C(=O)Nc2ccccc2N)cc1` [(14), N-(2-Amino-phenyl)-4-[1-(3,4-dihydro-1H-isoquinolin-2-ylmethyl)-2-methyl-propenyl]-benzamide], for which the melting point stood at 120 °C.

Regarding `Nc1ccccc1NC(=O)c1ccc(CNC(=O)OCc2cccnc2)cc1` [MS275, reference compound], the GI50 was 1260 nM with HCC-2998 (Homo sapiens, HCC-2998, colon cancer, comparison versus MS275, read-out: potency (quantity not named; values match GI50 of Table 1)); 2000 nM with ACHN; 1000 nM in the series on NCI-H522 (Homo sapiens, NCI-H522, non-small cell lung cancer, comparison versus MS275, read-out: potency (quantity not named; values match GI50 of Table 1)); 1030 nM with NCI-H23 (Homo sapiens, NCI-H23, non-small cell lung cancer, comparison versus MS275, read-out: potency (quantity not named; values match GI50 of Table 1)); 5010 nM in the series with SK-OV-3; 20000 nM with OVCAR-4. The GI50 in the series with RXF 393 came out at 2000 nM; in the series on MDA-MB-435 (Homo sapiens, MDA-MB-435, breast cancer, comparison versus MS275, read-out: potency (quantity not named; values match GI50 of Table 1)), 10000 nM; with SK-MEL-28 it was 2000 nM; in the series with NCI/ADR-RES (Homo sapiens, breast cancer, comparison versus MS275, read-out: potency (quantity not named; values match GI50 of Table 1)) it was 1260 nM; in the series with LOX IMVI (Homo sapiens, melanoma, comparison versus MS275, read-out: potency (quantity not named; values match GI50 of Table 1)) it was 790 nM; in the series with IGROV1 (Homo sapiens, IGROV1, ovarian cancer, comparison versus MS275, read-out: potency (quantity not named; values match GI50 of Table 1)), 2510 nM. Moreover, the GI50 came out at 3160 nM in the series with 786-0; 25000 nM in the series on KM-12; 3980 nM in the series on HCT-15; 2000 nM with MDA-MB-231/ATCC; 5010 nM in the series with SN12C; 1540 nM in the series with UACC-257.

On to `CC(/C=C/C(=O)NO)=C\[C@@H](C)C(=O)c1ccc(N(C)C)cc1` [Trichostatin A], for which the formation of tumours entry with tumours is given as “prevent the formation of tumours in mice”. Further, the “effect on the cell cycle” value with rat fibroblasts was “arrest of rat fibroblasts at the G1 and G2 phases of the cell cycle”.
